Laboratory results published in patent US9675591B2, “Methods for treating seizure disorders and pain” (THE REGENTS OF THE UNIVERSITY OF CALIFORNIA, priority 2013, dated 2017).
Entries after “also recorded” stand apart in the source; their conditions may differ. Where two headings read alike, the source gives them in different places.

Columns and labels:
[1] = system: hippocampal kindled rats; assay: Hippocampal kindled seizures; format: in vivo
Procedure: Bipolar electrodes were surgically implanted into the hippocampus of anesthetized rats, which were allowed to recover for one week. One week after the surgery, the rats were stimulated with suprathreshold trains of 200 μAmps for 10 sec, 50 Hz, every 30 min for 6 hours (12 stimulations per day) on alternate days (4 to 5 stimulus days) until they were fully kindled. One week later the effect of a single i.p. dose of test compound was assessed on behavioral seizure score (BSS) and afterdischarge duration (ADD). An initial group of kindled rats (n=6-8) were tested at 15, 45, 75, 105, 135, 165, and 195 min after drug administration. Results obtained at the various time points were compared with the last control stimulus delivered 15 minutes prior to drug administration. Thus, each animal serves as its own control. The BSS's were scored according to the following criteria: Stage 1—mouth and facial clonus; Stage 2—stage 1 plus head nodding; Stage 3—stage 2 plus forelimb clonus; Stage 4—stage 3 plus rearing; Stage 5—stage 4 plus repeated rearing and falling. The afterdischarge threshold (ADT) is measured in the kindled rat. […] The BSS and ADD for each dose were averaged at the TPE, the S.E.M. calculated, and the significance of the difference compared to control values determined. (Significant differences in BSS from control and treated groups are determined by the non-parametric Mann-Whitney U test).

[2] = system: lamotrigine resistant amygdala kindled rats; assay: Lamotrigine resistant amygdala kindled rats; format: in vivo
[3] = Pharmacokinetics in Sprague-Dawley rats; format: in vivo
[4] = system: mechanical allodynia; assay: Pain assay, partial ligation of the sciatic nerve (Von Frey); format: in vivo, rats; conditions: 5 mg/kg, 2 hour time point
Procedure: Rats were anesthetized with sodium pentobarbital, the upper thigh shaved and wiped off with ethanol and betadine. A small incision was made in the skin and the underlying muscle separated to expose the sciatic nerve. Approximately ⅓ to ½ of the nerve was tied off by passing a needle (7.0) and nylon suture through the nerve. The muscle and skin incision were afterwards closed off and the animals kept warm until they had recovered from the anesthesia. This procedure was performed on the right side (ipsilateral) while a sham surgery exposing but not ligating the nerve was performed on the left hind leg (contralateral). After 7 days of recovery animals were tested for the development of mechanical allodynia (abnormal response to a non-noxious stimulus) by putting them in a bottomless plexiglass box placed on a wire mesh (¼″) platform. After 30-60 min of acclimatization a baseline mechanical sensitivity was determined by applying a series of calibrated Von Frey fibers perpendicularly to the plantar surface of each hind paw and holding it there for about 6 s with enough force to slightly bend the fiber. […] This was repeated until a 50% threshold for withdrawal could be determined. The allodynic threshold was then redetermined after i.p. application of SKA-19 at 5 mg/kg at the time-to-peak effect determined in the acute seizure models.

[5] = system: cultured hippocampal neurons; assay: Synchronous intracellular Ca2+ oscillations (FLIPR); format: cell-based, mouse; conditions: for effect on picrotoxin (PTX) induced Ca2+ oscillations: added 10 min before PTX
Procedure: Animals were treated humanely and with regard for alleviation of suffering according to protocols approved by the Institutional Animal Care and Use Committee of the University of California, Davis. Hippocampal neuron cultures were dissociated from hippocampi dissected from C57Bl/6J mouse pups at postnatal day 0-1 and maintained in Neurobasal complete medium (Neurobasal medium supplemented with NS21, 0.5 mM L-glutamine, HEPES) with 5% fetal bovine serum. For Ca^2+ imaging studies using FLIPR, dissociated hippocampal cells were plated onto poly-L-lysine coated clear-bottom, black wall, 96-well imaging plate (BD, Franklin Lakes, N.J., USA) at a density of 0.8×10^5/well. The medium was changed twice a week by replacing half the volume of culture medium in the well with serum-free Neurobasal complete medium. The neurons were maintained at 37° C. with 5% CO2 and 95% humidity.
Hippocampal neurons 14-17 DIV were used for simultaneous measurements of intracellular Ca^2+ transients in all wells of a 96-well plate as described previously (Cao et al., 2012). After aspiration, the cells were incubated with 4 μM Fluo-4 in Locke's buffer containing 0.5 mg/ml bovine serum albumin for 1 h at 37° C. The plates were then transferred to the FLIPR (Molecular Devices, Sunnyvale, Calif., USA) cell plate stage. After 4 min of baseline recordings, Ca^2+ signals were then recorded for 10 min in the presence or absence of SKA-19 followed by addition of the Ca^2+ enhancing agents 4-AP or PTX, and the intracellular Ca^2+ concentration ([Ca^2+]i) was monitored for an additional 30 min. Ca^2+-enhancing agents triggered an immediate rise in [Ca^2+]i that was quantified by determining the area under the curve of the Fluo-4 arbitraiy fluorescence units for a duration of 5 min following agent addition.
Hippocampal neurons between 13-17 days in vitro (DIV) were used to investigate how Ca^2+ enhancing agent alters synchronous Ca^2+ oscillations that normally occur in healthy neurons at this developmental stage. This method permits simultaneous measurements of intracellular Ca^2+ transients in all wells of a 96-well plate as described previously (Cao et al., 2012). Baseline recordings were acquired in Locke's buffer (8.6 mM HEPES, 5.6 mM KCl, 154 mM NaCl, 5.6 mM glucose, 1.0 mM MgCl2, 2.3 mM CaCl2, and 0.0001 mM glycine, pH 7.4) for 10 min in presence or absence of SKA-19 followed by addition of the Ca^2+ enhancing agents 4-aminopyridine (4-AP) or picrotoxin using a programmable 96-channel pipetting robotic system, and the intracellular Ca^2+ concentration ([Ca^2+]i) was monitored for an additional 30 min. Unless otherwise indicated, pharmacological interventions were introduced 10 min prior to Ca^2+ enhancing agent. Ca enhancing agent triggered an immediate rise in [Ca^2+]i that was quantified by determining the area under the curve (AUC) of the Fluo-4 arbitrary fluorescence units for a duration of 5 min following Ca^2+ enhancing agent addition. Ca^2+ enhancing agent also altered the frequency and amplitude of neuronal synchronous Ca^2+ oscillations, which were analyzed during the 10 min period after addition of Ca^2+ enhancing agent […].

Nc1nc2ccc(SC(F)(F)F)cc2s1 [SKA-19, 6-((trifluoromethyl)thio)benzo[d]thiazol-2-amine]
afterdischarge duration (ADD) ([1]; 30 mg/kg i.p., two fully kindled rats): completely suppressed | seizure score after treatment ([1]; 30 mg/kg i.p., two fully kindled rats, predrug score 4-5): 0 | ED50 ([1]; Rattus norvegicus, ip, 2 h): 5.47 mg/kg | toxicity in kindled rats ([1]; highest dose 15 mg/kg): no evidence of toxicity | rats protected ([2]; 6 mg/kg): 2 out of 8 | rats protected ([2]; 50 mg/kg): 3 out of 7 | oral availability ([3]; 10 mg/kg, both vehicles (solution and methylcellulose suspension)): roughly 30% | penetration into tissues (brain, heart, spleen, liver) ([3]; 2 h after i.p. 10 mg/kg): very effective at penetrating into tissues | peak plasma concentration ([3]; gavage 10 mg/kg, suspension in methylcellulose): 1.6 ± 0.6 µM | Kp at 2 h ([3]; male, Sprague-Dawley, rat, brain, ip, 10 mg/kg i.p., 2 h, read-out: brain to plasma concentration ratio): ~3 | concentration at 2 h ([3]; male, Sprague-Dawley, rat, plasma, intraperitoneal, 10 mg/kg i.p., 2 h, read-out: plasma concentration): 4.6 ± 1.3 µM | concentration at 2 h ([3]; male, Sprague-Dawley, rat, plasma, intraperitoneal, 30 mg/kg i.p., 2 hours, read-out: total plasma concentration): 12 ± 2.21 µM | concentration at 4 h ([3]; male, Sprague-Dawley, rat, plasma, intraperitoneal, 30 mg/kg i.p., 4 hours, read-out: total plasma concentration): 13.1 ± 2.67 µM | half-life ([3]; male, Sprague-Dawley, rat, plasma, iv, 10 mg/kg, rats, i.v. 10 mg/kg in cremophor EL/PBS, read-out: elimination half-life t1/2 (converted)): 2.2 h | concentration at 8 h ([3]; male, Sprague-Dawley, rat, plasma, oral solution 10 mg/kg, at 8 h): 0.4 µM | oral availability ([3]; methylcellulose suspension as used by the ASP): about 50% | plasma concentration ([3]; oral solution 10 mg/kg, for 5 h): around 1 μM | sedation ([3]; rats, 30 mg/kg i.p., recovered without weight loss at 24 h): prolonged sedation | elimination half-life t1/2 ([3]; rats, i.v. 10 mg/kg in cremophor EL/PBS): 2.16 ± 0.023 h | withdrawal threshold (Von Frey) [4]: significantly increased | effect on spontaneous Ca2+ oscillations ([5]; SKA-19 1 μM or less): did not significantly inhibit; also recorded: no effect | effect on spontaneous Ca2+ oscillations ([5]; SKA-19 3 μM or more): completely eliminated | effect on 4-AP induced initial Ca2+ rise and oscillations ([5]; added 10 min before 4-AP): potently suppressed; also recorded: inhibited | effect on picrotoxin (PTX) induced Ca2+ oscillations [5]: potently suppressed | effect on picrotoxin (PTX) induced Ca2+ oscillations ([5]; listed as SKA-10): inhibited
